Entries after “also recorded” stand apart in the source; their conditions may differ. Where two headings read alike, the source gives them in different places.
How the values were obtained:
[1] = tested on: pleural effusion samples from Non-small cell lung carcinoma patients; experiment: CSRA of patient pleural effusion samples, Propidium iodide cell viability; assay type: cell-based, human; conditions: 15 μM, 24-hour exposure; samples from 8 patients
Protocol: The drug response of pleural effusion samples taken from 8 Non-small cell lung carcinoma patients was tested in a preliminary experiment. […] The genomic analysis could not predict however development of resistance. For each of the samples, the cells were first uploaded into the chip for a 24-hour acclimation period after which the cells were exposed different drugs. The 24 hours response to two […], Alectinib and Crizotinib (15 μM) is shown herein. Cell viability was measured using Propidium iodide, which dyes the nuclei of dead cells (magenta). It was known that the biopsies originated from patients that were treated with Alectinib and Crizotinib, however their response to each treatment was not known nor the order in which the drugs were administered, in order to avoid any sort of confirmation bias when collecting and analyzing the data. The moment when the pleural effusions were collected during the treatments was neither known. Crizotinib, like Alectinib is an ALK inhibitor and works by operating as a competitive inhibitor to the ATP binding site of the tyrosine kinase enzyme that the ALK gene codes for and in doing so prevents its carcinogenic activity. […] At the end of the 24-hour exposure period, the data from the experiments was analyzed and calculated to determine the survival and or mortality rate of the cells.

[2] = tested on: Non-small cell lung carcinoma patients; conditions: patients first treated with Alectinib, then replaced with Crizotinib; cited from earlier work
MCF-7 cells [3] = experiment: MCF-7 cell response to a printed drug array, live/dead assay; assay type: cell-based; conditions: drugs spotted at 0, 0.1, 0.5, 0.7 and 1 mM; 2 hours incubation
Protocol: MCF7 cells response to 4 different drugs (Doxorubicin, Docetaxel, Pacletoxel, Methotrexate) at 4 different concentrations (0.1-1 mM). The drugs were printed on the slide and aligned into drug chamber inside the device. Live/dead assay was performed by double staining dead cells (Red) and live cells (Green).
(§1) The evaluation of anticancer drug effect on cells vitality was conducted in two steps. First, Docetaxel was used, which is one of the first-line chemotherapies used for metastatic breast cancer. Docetaxel, at different concentrations (1 uM, 10 uM and 100 uM), was flown into the microfluidics device for 5 minutes, following the cell accommodation period. Then the cells, were incubated with the drug for 2 hours. Cell feeding, by diffusion, commenced until the experiment was finished. Live/dead assay was applied up to 48 hours following drug administration. After the evaluation of cells response to one drug-Docetaxel the effect was tested of an array of drugs on the cells. The drugs were printed on a glass substrate and their spotted array was aligned to the drug chamber in the microfluidic device.
(§2) Custom assays for cells vitality evaluation were applied. Living cells were stained with Calcein-AM (50 ng/ul in DMEM medium) (Biotest, Israel) which colors the cytoplasm. Dead cells were stained with Propidium Iodide (PI) (Sigma, Israel) (15 ng/ul in DMEM medium), coloring the nuclear. All cells nuclear (live and dead) were stained by Hoechst 33342 stain (Bis-Benzimide H3342 trihydro-chloride, Sigma, Israel) (10 ng/μl in DMEM medium). A solution of all three dyes was prepared and flowed within the chip. The cells were washed with the solution for 20 min at a pressure of 2 psi. Following dyes application, the controlled valves were closed and the device was incubated for 30 min at 37° C. 5% CO2 to allow cells staining. Next, the valves were opened and the device was washed by phenol-free DMEM medium for 15 min, to remove colures remains.
The drugs, Doxorubicin (Doxorubicin hydrochloride, Tocirs, USA), Docetaxel, Paclitaxel Methotrexate (drugs were supplied with the courtesy of Dr. Levanon, The institute of Oncology, Chaim Sheba Medical Center, Israel), were spotted on a microscope slide at 5 different concentrations (0, 0.1, 0.5, 0.7 and 1 mM) and then covered with the microfluidic device, encompassing the thy drugs inside the drug chamber. Cells were seeded on the device and cultured for 2 hours. Then the valve blocking the drug chamber was opened and the drugs were flooded and allowed to diffuse out and incubated with the cells for 2 hours. A different response was observed dynamics to the different drugs, expressed by different mortality rates.

MCF7 cells = experiment: Live/dead staining assay in microfluidic device after Docetaxel exposure, MCF7 cells; assay type: cell-based; set-up: dose or concentration left out as unconfirmed; conditions: Docetaxel for 2 hours, 48 hours after seeding; live/dead assay at T0, 5, 24, 48 hours; n=47; vs untreated control
Protocol: The cells were then dissociated from the culture dish at 60-70% confluence with 0.25% trypsin in PBS, resuspended in DMEM containing 10% FBS and introduced into the microfluidic device. […] MCF7/Dx cell line was grown in the presence of 10 ^M doxorubicin and cultured for 4 weeks in drug-free medium prior to use.
The evaluation of anticancer drug effect on cells vitality was conducted in two steps. First, Docetaxel was used, which is one of the first-line chemotherapies used for metastatic breast cancer. […] Then the cells, were incubated with the drug for 2 hours. Cell feeding, by diffusion, commenced until the experiment was finished. Live/dead assay was applied up to 48 hours following drug administration. […]
(§3) Statistical analysis was carried up using Microsoft Excel 2016 Data Analysis package and RStudio (RStudio Team (2015). RStudio: Integrated Development for R. RStudio, Inc., Boston, Mass.) Images were processed with NIS Elements Analysis software (ver. 40.20.01 Nikon, USA). For all experiments, variables are expressed as traditional boxplots, presenting median, maximum, minimum and Interquartiie range (IQR). […] In all cases, significance was defined as p<0.05, one way analysis of variance was evaluated using Anova, while multiple comparison was evaluated using Tukey's range test (post-hoc Anova analysis). […]

[4] = tested on: dispersed cells and cell clusters; experiment: cells; assay type: cell-based
Protocol: Cells were exposed twice to Docetaxel once at a concentration of 1 μM and 24 hours later re-exposed to 10 μM Docetaxel for a period of 2 hrs. […] P value was determined using two-tail T-test (n=43).
FIG. 9A: Cells were exposed twice to Docetaxel once at a concentration of 1 μM and 48 hours later a second exposure to 10 μM. Images were taken 24 hours after the second drug exposure T24 (which is 120 hours post seeding).
Cells were exposed to 10 μM Docetaxel for 2 hours. The dynamic of cell death was detected using PI staining. […] Monitoring proceeded up to 28 hours.
as §2, with “Next, the valves were opened and the device was washed by phenol-free DMEM medium for 15 min, to remove colures remains.” left out

[5] = tested on: cells in microfluidic cell chamber; experiment: Dynamics of cell death following Docetaxel treatment (FIG. 6), PI staining in cell chambers; assay type: cell-based; conditions: Docetaxel 10 uM, 2 hours exposure, 50 drug chambers vs 50 control chambers
Protocol: FIG. 6A: Live images of a representative cell chamber before (T0) and after (up to 20 hours) exposure to Docetaxel (10 uM). Dead cells were stained with Red (PI).
FIG. 6B: Box plot analysis of the mortality rate (%) of cells following 2 hours of exposure to Docetaxel (10 uM)—T0. Nearly 100 cells chambers were analyzed, 50 following drug exposure and 50 control—no drug exposure. […] Two tail paired T-test analysis were conducted.
Custom assays for cells vitality evaluation were applied. Living cells were stained with Calcein-AM (50 ng/ul in DMEM medium) (Biotest, Israel) which colors the cytoplasm. Dead cells were stained with Propidium Iodide (PI) (Sigma, Israel) (15 ng/ul in DMEM medium), coloring the nuclear. […]
Statistical analysis was carried up using Microsoft Excel 2016 Data Analysis package and RStudio (RStudio Team (2015). RStudio: Integrated Development for R. RStudio, Inc., Boston, Mass.) Images were processed with NIS Elements Analysis software (ver. 40.20.01 Nikon, USA). For all experiments, variables are expressed as traditional boxplots, presenting median, maximum, minimum and Interquartiie range (IQR). […] In all cases, significance was defined as p<0.05, one way analysis of variance was evaluated using Anova, while multiple comparison was evaluated using Tukey's range test (post-hoc Anova analysis).

293T cells = experiment: Live/dead staining assay in microfluidic device after Docetaxel exposure, 293T cells; assay type: cell-based; set-up: dose or concentration left out as unconfirmed; conditions: Docetaxel for 2 hours, 48 hours after seeding; live/dead assay at T0, 5, 24, 48 hours
Protocol: as §1, with “Docetaxel, at different concentrations (1 uM, 10 uM and 100 uM), was flown into the microfluidics device for 5 minutes, following the cell accommodation period.” left out
Custom assays for cells vitality evaluation were applied. […]
as §3

[6] = tested on: MCF-7/dx (Doxorubicin resistant cells); experiment: Doxorubicin treatment specificity in microfluidic device, Doxorubicin resistant MCF-7/dx cells; conditions: drug resistant MCF7/Dx cells; 24 hours of 10 μM doxorubicin
MCF-7 cells [7] = experiment: Doxorubicin treatment specificity in microfluidic device, MCF-7 cells; conditions: drug sensitive MCF7 cells; 24 hours of 10 μM doxorubicin
[8] = in vivo; cited from earlier work

CCc1cc2c(cc1N1CCC(N3CCOCC3)CC1)C(C)(C)c1[nH]c3cc(C#N)ccc3c1C2=O [Alectinib]
24 hours drug response of patient samples (resistance / sensitivity) [1]: All samples were resistant; also recorded: all the patients were resistant | patient response to treatment (patient history) [2]: developed resistance

C[C@@H](Oc1cc(-c2cnn(C3CCNCC3)c2)cnc1N)c1c(Cl)ccc(F)c1Cl [Crizotinib]
24 hours drug response of patient samples (resistance / sensitivity) [1]: varying sensitivity; also recorded: varying from resistance to medium or high response | patient response to treatment (patient history) [2]: the response was different between patients

CC(=O)O[C@@]12CO[C@@H]1C[C@H](O)[C@@]1(C)C(=O)[C@H](O)C3=C(C)[C@@H](OC(=O)[C@H](O)[C@@H](NC(=O)OC(C)(C)C)c4ccccc4)C[C@@](O)([C@@H](OC(=O)c4ccccc4)[C@H]21)C3(C)C [Docetaxel]
dose dependence of sensitivity of MCF-7 cells (MCF-7 cells [3]): dose dependence sensitivity was observed | mortality rate of MCF-7 cells versus drug dose (MCF-7 cells [3]): mortality rate increased starting from the lower dose of drug (0.1 mM) (p<0.05) | mortality rate of MCF7 cells post drug exposure (MCF7 cells): significantly increased (p<0.05) within 5 hours post drug exposure with no further increase in mortality rate up to 48 hours | mortality at 1 µM ([4]; read-out: Cluster mortality rate (Mean±S.E)): 33 ± 5% | mortality at 1 µM ([4]; read-out: mortality rate of the dispersed cells population (Mean±S.E)): 65 ± 6% | cells vitality immediately after 2 hrs of drug exposure (T0 drug) [5]: no differences in cells vitality | cells mortality rate twenty hours post cultivation ([5]; 20 hours): following drug exposure a further significant increase was observed (p<0.05) | mortality rate of 293T cells post drug exposure (293T cells): increase in mortality rate after 5 hrs (p<0.05) with no further deterioration

COc1cccc2c1C(=O)c1c(O)c3c(c(O)c1C2=O)C[C@@](O)(C(=O)CO)C[C@@H]3O[C@H]1C[C@H](N)[C@H](O)[C@H](C)O1 [Doxorubicin]
dose dependence of sensitivity of MCF-7 cells (MCF-7 cells [3]): dose dependence sensitivity was observed | mortality rate of MCF-7 cells versus drug dose (MCF-7 cells [3]): mortality rate increased starting from the lower dose of drug (0.1 mM) (p<0.05) | morphological features of apoptotic/necrotic processes [6]: almost absent | cells showing morphological features of apoptotic/necrotic processes (MCF-7 cells [7]): about 98%

CN(Cc1cnc2nc(N)nc(N)c2n1)c1ccc(C(=O)N[C@@H](CCC(=O)O)C(=O)O)cc1 [Methotrexate]
dose dependence of sensitivity of MCF-7 cells (MCF-7 cells [3]): dose dependence sensitivity was observed | mortality rate of MCF-7 cells versus drug dose (MCF-7 cells [3]): mortality rate increased starting from the lower dose of drug (0.1 mM) (p<0.05)

CC(=O)O[C@H]1C(=O)[C@@]2(C)[C@H]([C@H](OC(=O)c3ccccc3)[C@]3(O)C[C@H](OC(=O)[C@H](O)[C@@H](NC(=O)c4ccccc4)c4ccccc4)C(C)=C1C3(C)C)[C@]1(OC(C)=O)CO[C@@H]1C[C@@H]2O [Paclitaxel]
dose dependence of sensitivity of MCF-7 cells (MCF-7 cells [3]): dose dependence sensitivity was observed | mortality rate of MCF-7 cells versus drug dose (MCF-7 cells [3]): mortality rate increased starting from the lower dose of drug (0.1 mM) (p<0.05)

Infliximab: purified, recombinant DNA-derived chimeric human-mouse IgG monoclonal antibody against TNF-α
serum half-life [8]: 228 h | time detectable in serum after infusion treatment [8]: 8 weeks
